Reference: patent publication US5377676A, “Method for determining the biodistribution of substances using fluorescence spectroscopy” (Cedars-Sinai Medical Center, priority 1993, dated 1995)

Columns and labels:
[1] = Photofrin biodistribution by laser induced fluorescence spectroscopy (LIFS); format: in vivo, male Lobund-Wistar rats
Description: (§1) The experimental arrangement used to measure the fluorescence spectra during abdominal exploration included a Helium-cadmium laser (Omnichrome, Chino, Calif.) operating at 442 nm as an excitation source. A 400 micron core diameter fiber was directed at the tissue in contact mode producing a low power (17 mW) illumination. Using the same fiber, reflected and emitted light was returned to the input of a SPEX 500 spectrometer (1422 G EG&G).
(§2) Laser output was reflected at a right angle by a dichroic mirror (HR/442 nm-H7>500 nm, CVI, New Mexico) and was focused at the input of a 400 micron core diameter fiberoptic probe. The excitation output of the laser at the distal end of the fiber was 17 mW. Fluorescence was collected using the same fiber and was transmitted through the dichroic beamsplitter and guided via a fiber bundle to a 0.5 spectrograph (100 g/mm diffraction grating with a split width of 50 microns). The light was then imaged at the modified output port. A 1024 element linear diode array detector (EG&G 1422G) was attached to the exit port, and the signal was directed to a multichannel intensifier. A longpass glass filter (Schott GG475) was used to exclude the excitation light from the detector and conversions were made by an analog to digital converter and automatically stored by a computer. […] Background spectra were recorded before excitation and subtracted from the resulting data. The detection system, including the detector attenuation filter, lenses and spectrograph, was not altered or corrected for a uniform spectral response.
(§3) Spectra from the surfaces of tumor (T), skin (S), muscle (M), liver (L), kidney (K), spleen (Sp), stomach (St), small bowel (SB) and large bowel (LB) were acquired and analyzed by the OMA. […] (FIG. 1 is a schematic representation of this experimental arrangement.) A series of spectra for Photofrin and BPD-MA were recorded from photosensitized animals. (FIGS. 2 and 3). The fluorescence intensities at 540 nm (auto-fluorescence) and 630 nm (Photofrin) or 690 nm (BPD-MA) were simultaneously monitored at three sites for each organ. By using the ratio of these intensities, (I630 nm /I540 nm) or (I690 nm /540 nm), a relative value could be assigned to each area studied. In addition, this intensity ratio eliminated any geometric factor (fiber position) influence in the calibration, as well as calibration errors. The corresponding intensity ratios were used as an index for drug presence in the various tissues.
(§4) The fluorescence emitted from cancerous and normal tissues of male Lobund-Wistar rats was investigated (Lobund Laboratory, Notre Dame University, Id.). All tumors were subcutaneously implanted by inoculating 10^5 viable cells of Pollard rat prostatic adenocarcinoma (PA-III) into the right flank of each animal. This tumor model was selected because it is known to metastasize uniformly and spontaneously from extravascular sites only through ipsilateral lymphatic channels. Because of this tumor's unique, predictable spread, the contralateral side of the animal could be used as a control. In addition, cancer detection is facilitated with this model because rats with PA-III cells survive beyond forty days after implantation without evidence of physical impairment.
After forty-two days of observation, Photofrin (QLT Phototherapeutics, Inc., Vancouver, Canada) was administered intraperitoneally to forty-one animals 24-48 hours prior to surgical exploration in doses ranging from 0.25-7.5 mg/kg. Six animals were injected 24 hours prior to surgical exploration with 0.75 mg/kg of Photofrin. Thirty animals were injected with six different concentrations of Photofrin 48 hours prior to surgical exploration (7.5 mg/kg (n=5), 2.5 mg/kg (n=4), 1.5 mg/kg (n=3), 0.75 mg/kg (n=11), 0.50 mg/kg (n=4), and 0.25 mg/kg (n=3)). Five animals which had not been inoculated with PA-III were injected with 0.75 mg/kg 48 hours prior to surgical exploration, and served as a control. […]

[2] = Absorption / fluorescence of the photosensitizer; format: physicochemical; conditions: 442 nm excitation
Description: as §1
Laser output was reflected at a right angle by a dichroic mirror (HR/442 nm-H7>500 nm, CVI, New Mexico) and was focused at the input of a 400 micron core diameter fiberoptic probe. The excitation output of the laser at the distal end of the fiber was 17 mW. Fluorescence was collected using the same fiber and was transmitted through the dichroic beamsplitter and guided via a fiber bundle to a 0.5 spectrograph (100 g/mm diffraction grating with a split width of 50 microns). […] Background spectra were recorded before excitation and subtracted from the resulting data. […]
Spectra from the surfaces of tumor (T), skin (S), muscle (M), liver (L), kidney (K), spleen (Sp), stomach (St), small bowel (SB) and large bowel (LB) were acquired and analyzed by the OMA. […] (FIG. 1 is a schematic representation of this experimental arrangement.) A series of spectra for Photofrin and BPD-MA were recorded from photosensitized animals. […]

[3] = BPD-MA biodistribution by LIFS, Study #1; format: in vivo, male Lobund-Wistar rats; conditions: for I(690 nm)/I(540 nm), kidney / I(690 nm)/I(540 nm), large bowel / I(690 nm)/I(540 nm), liver / I(690 nm)/I(540 nm), mesenteric lymph nodes (MCLN) / I(690 nm)/I(540 nm), metast. L. node / I(690 nm)/I(540 nm), muscle / I(690 nm)/I(540 nm), non-met L. node / I(690 nm)/I(540 nm), skin / I(690 nm)/I(540 nm), small bowel: mean ± SD
Description: as §1, §2, §3, §4
(§5) Two separate experiments were performed to assess the biodistribution of BPD-MA. The first study involved 21 animals and two doses of BPD-MA, 0.25 mg/kg and 0.50 mg/kg, to determine the concentration effect of BPD-MA in various tissues. The second study involved 81 animals and 0.75 mg/kg of BPD-MA to determine the biodistribution of BPD-MA and the sensitivity and specificity of LIFS biodistribution measurements.
BPD-MA (QLT Phototherapeutics, Inc., Vancouver, Canada) was administered to 21 animals intravenously. The animals were divided into three groups of seven animals each and injected with two different doses of BPD-MA, 0.25 mg/kg (n=7) and 0.50 mg/kg (n=7) 4-6 hours prior to surgical exploration. Seven animals served as a control. […]

[4] = parameters: species or system male Lobund-Wistar rats; conditions: rat, in vivo, iv, 0.75 mg/kg
Description: as §1, §2, §3, §4, §5
BPD-MA (QLT Phototherapeutics, Inc., Vancouver, Canada) was administered intravenously in a dose of 0.75 mg/kg to 81 animals 4 hours prior to surgical exploration.
As in Study #1, the animals were anesthetized with Ketamine 40 mg/kg and Xylazine 5.0 mg/kg intraperitoneally, and the abdomens opened through a midline incision. […]

[5] = BPD-MA biodistribution by LIFS, Study #1; parameters: species or system male Lobund-Wistar rats; conditions: rat, in vivo, iv, 0.5 mg/kg
[6] = after excitation by blue light; cited from earlier work
[7] = in vivo; cited from earlier work
[8] = 1.5 mg/kg i.p., 48 h, PA-III rats, mean ± SD
[9] = 2.5 mg/kg i.p., 48 h, PA-III rats, mean ± SD
[10] = 7.5 mg/kg i.p., 48 h, PA-III rats, mean ± SD

## Photofrin
[1]; [8]
  Fluorescence intensity ratio (I630 nm/I540 nm), skin: 0.23 ± 0.06
  Fluorescence intensity ratio (I630 nm/I540 nm), small bowel: 0.56 ± 0.08
  Fluorescence intensity ratio (I630 nm/I540 nm), spleen: 1.25 ± 0.35
  Fluorescence intensity ratio (I630 nm/I540 nm), stomach: 0.92 ± 0.12
  Fluorescence intensity ratio (I630 nm/I540 nm), tumor: 0.36 ± 0.01
[1]; [9]
  Fluorescence intensity ratio (I630 nm/I540 nm), non metas L. node: 1.75 ± 1.06
  Fluorescence intensity ratio (I630 nm/I540 nm), skin: 0.22 ± 0.04
  Fluorescence intensity ratio (I630 nm/I540 nm), small bowel: 0.57 ± 0.30
  Fluorescence intensity ratio (I630 nm/I540 nm), spleen: 0.72 ± 0.25
  Fluorescence intensity ratio (I630 nm/I540 nm), stomach: 0.26 ± 0.01
  Fluorescence intensity ratio (I630 nm/I540 nm), tumor: 0.70 ± 0.43
[1]; [10]
  Fluorescence intensity ratio (I630 nm/I540 nm), skin: 0.25 ± 0.04
  Fluorescence intensity ratio (I630 nm/I540 nm), small bowel: 0.96 ± 0.33
  Fluorescence intensity ratio (I630 nm/I540 nm), spleen: 1.56 ± 0.68
  Fluorescence intensity ratio (I630 nm/I540 nm), stomach: 0.62 ± 0.24
  Fluorescence intensity ratio (I630 nm/I540 nm), tumor: 2.45 ± 1.00
[1]; rat, in vivo, 2880 min
  Dose at which metastatic and non-metastatic lymph nodes are distinguished (selectivity): higher than 0.25 mg/kg
[2]
  Characteristic fluorescence peak: ~ 630 nm

## Benzoporphyrin derivative monoacid-A [BPD-MA]
[3]; 4 Hours, 0.25 mg/kg i.v.
  I(690 nm)/I(540 nm), kidney: 1.04 ± 0.40
  I(690 nm)/I(540 nm), large bowel: 1.27 ± 0.30
  I(690 nm)/I(540 nm), liver: 7.83 ± 3.69
  I(690 nm)/I(540 nm), mesenteric lymph nodes (MCLN): 1.40 ± 0.27
  I(690 nm)/I(540 nm), metast. L. node: 3.19 ± 2.31
  I(690 nm)/I(540 nm), muscle: 1.73 ± 0.47
  I(690 nm)/I(540 nm), non-met L. node: 3.55 ± 1.77
  I(690 nm)/I(540 nm), skin: 0.31 ± 0.12
  I(690 nm)/I(540 nm), small bowel: 7.63 ± 2.73
[3]; 4 Hours, 0.50 mg/kg i.v.
  I(690 nm)/I(540 nm), kidney: 1.57 ± 0.32
  I(690 nm)/I(540 nm), large bowel: 1.59 ± 0.45
  I(690 nm)/I(540 nm), liver: 15.74 ± 9.25
  I(690 nm)/I(540 nm), mesenteric lymph nodes (MCLN): 3.12 ± 0.99
  I(690 nm)/I(540 nm), metast. L. node: 6.73 ± 2.39
  I(690 nm)/I(540 nm), muscle: 1.62 ± 0.82
  I(690 nm)/I(540 nm), non-met L. node: 2.65 ± 0.62
  I(690 nm)/I(540 nm), skin: 0.50 ± 0.17
  I(690 nm)/I(540 nm), small bowel: 9.91 ± 5.08
[3]; 6 Hours, 0.25 mg/kg i.v.
  I(690 nm)/I(540 nm), kidney: 0.78 ± 0.19
  I(690 nm)/I(540 nm), large bowel: 2.37 ± 1.48
  I(690 nm)/I(540 nm), liver: 5.20 ± 2.38
  I(690 nm)/I(540 nm), mesenteric lymph nodes (MCLN): 1.43 ± 0.67
  I(690 nm)/I(540 nm), metast. L. node: 3.70 ± 2.82
  I(690 nm)/I(540 nm), muscle: 0.78 ± 0.26
  I(690 nm)/I(540 nm), non-met L. node: 2.77 ± 2.25
  I(690 nm)/I(540 nm), skin: 0.30 ± 0.15
  I(690 nm)/I(540 nm), small bowel: 4.98 ± 2.83
[3]; rat, in vivo, iv
  BPD-MA retention in organs with time: BPD-MA retention in all organs decreased with time
[3]; rat, in vivo, iv, 0.5 mg/kg
  Fluorescence intensity ratio (I630 nm/I540 nm), non-metastatic tissue: 2.65 ± 0.62
  I(690 nm)/I(540 nm), spleen: 1.57 ± 0.31
  I(690 nm)/I(540 nm), stomach: 2.95 ± 1.10
  I(690 nm)/I(540 nm), tumor: 3.44 ± 1.14
[4]
  Fluorescence intensity ratio mean, Left Iliac LN (LILN): 5.22
  Fluorescence intensity ratio mean, Mesenteric I LN (MC I): 2.45
  Fluorescence intensity ratio mean, Mesenteric II LN (MC II): 2.37
  Fluorescence intensity ratio mean, Right Iliac LN (RILN): 5.86
  Fluorescence intensity ratio mean, Right Inguinal LN (RIN): 4.72
  Fluorescence intensity ratio mean, Right Para-Aortic LN (RPAR): 7.40
  Fluorescence intensity ratio mean, Right Sub-Renalis LN (RSBR): 4.50
  Fluorescence intensity ratio mean, Right Supra-Renalis LN (RSPR): 4.26
  Fluorescence intensity ratio mean, inflammatory LN: 3.67
  Fluorescence intensity ratio mean, metastatic LN: 6.26
  Fluorescence intensity ratio mean, normal LN: 3.06
[5]
  Fluorescence intensity ratio (I630 nm/I540 nm), metastatic tissue: 6.73 ± 2.39
[6]
  Characteristic red fluorescence peak: approximately 690 nm
[7]
  Photosensitivity of the skin: dramatically decreased photosensitivity of the skin
